In ChEMBL document CHEMBL1201862, “PubChem BioAssay data set” (2004):
The source made the active and inactive calls.

Tests used:
HEK293 = assay: HEK293T cell cytotoxicity, dose response, cytotoxicity control, ATP luminescence, cherry-pick samples (AID 687005); assay type: functional, cell-based; details: Homo sapiens;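 also: cells exposed to compound for 48 hours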
[1] = HEK293 Cytotoxicity Assay Measured in Cell-Based System Using Plate Reader - 7071-01_Inhibitor_Dose_CherryPick_Activity_Set2.; assay type: functional
HeLa = assay: HeLa cell cytotoxicity, dose response, cytotoxicity control, ATP luminescence, cherry-pick samples (AID 687004); assay type: functional, cell-based; details: Homo sapiens
[2] = target: T1, RNA-binding protein pos-1 (Caenorhabditis elegans, UniProt G5EF15); assay: inhibitors of POS-1/mex-3 RNA binding, dose response, biochemical, fluorescence polarization (AID 1964);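 also: purified POS-1 fused to maltose binding protein made in E. coli; potency of compounds blocking POS-1 binding to fluorescent RNA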
T1 sequence (G5EF15 whole entry): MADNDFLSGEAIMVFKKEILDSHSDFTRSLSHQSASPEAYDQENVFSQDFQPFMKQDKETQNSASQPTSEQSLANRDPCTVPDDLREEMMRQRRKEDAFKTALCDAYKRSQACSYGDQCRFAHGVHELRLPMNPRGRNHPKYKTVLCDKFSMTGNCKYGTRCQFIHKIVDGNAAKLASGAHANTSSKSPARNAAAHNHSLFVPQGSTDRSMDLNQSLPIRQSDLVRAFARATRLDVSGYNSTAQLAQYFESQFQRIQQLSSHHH

[3] = target: T2, Zinc finger protein mex-5 (Caenorhabditis elegans, UniProt Q9XUB2); assay: MEX-5/TCR-2 RNA interaction inhibitors, dose response, biochemical, C. elegans, fluorescence polarization (AID 1960)
T2 sequence (Q9XUB2 whole entry): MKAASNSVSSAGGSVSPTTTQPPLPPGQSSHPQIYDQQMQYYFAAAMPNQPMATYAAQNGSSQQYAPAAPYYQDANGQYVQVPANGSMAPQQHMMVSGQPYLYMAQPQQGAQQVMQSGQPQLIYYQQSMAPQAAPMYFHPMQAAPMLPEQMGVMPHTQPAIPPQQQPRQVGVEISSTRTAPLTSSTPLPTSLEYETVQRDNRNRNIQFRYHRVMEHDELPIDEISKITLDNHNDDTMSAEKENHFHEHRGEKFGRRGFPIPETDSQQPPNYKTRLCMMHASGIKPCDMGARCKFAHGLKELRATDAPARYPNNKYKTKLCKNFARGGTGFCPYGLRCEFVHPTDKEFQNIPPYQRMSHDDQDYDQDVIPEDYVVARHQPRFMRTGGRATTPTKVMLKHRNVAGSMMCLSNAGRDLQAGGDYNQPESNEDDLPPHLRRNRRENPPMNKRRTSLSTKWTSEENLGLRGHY

Caspase-6 = Caspase-6 (Homo sapiens, UniProt P55212); assay: human caspase-6 inhibitors, dose response, biochemical, VEID-R110 fluorescence, cherry-pick (AID 720632)
[4] = ADAM10 inhibitors, peptide cleavage, dose response, biochemical, QFRET (AID 743254);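 also: ADAM10 enzyme with the DM2 quenched FRET peptide as substrate; EDANS fluorescence gain as the protease cuts the substrate; inhibitor potency against ADAM10 proteolytic activity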
[5] = target: Disintegrin and metalloproteinase domain-containing protein 17 (Homo sapiens, UniProt P78536); assay: ADAM17 protease inhibitors, dose response, counter-screen for ADAM10 exosite inhibitor project, biochemical, quenched FRET substrate (AID 743253)
[6] = cytotoxicity toward Colo320 cells – cell-based, CellTiter-Glo luminescence, IC50, dose response (AID 1117334); assay type: functional; details: COLO 320
[7] = RKO cell viability reduction, dose response, CellTiter-Glo luminescence (AID 1117322); assay type: functional
[8] = cytotoxicity toward HCT116 cells – cell-based, CellTiter-Glo luminescence, IC50, dose response (AID 1117332); assay type: functional; details: HCT-116
[9] = cytotoxicity toward HT-29 cells – cell-based, CellTiter-Glo luminescence, IC50, dose response (AID 1117330); assay type: functional
[10] = HeLa 2N DNA content increase, dose response, cell-based, IC50 (AID 1117349); assay type: functional
[11] = HeLa 4N DNA content increase, dose response, cell-based, IC50 (AID 1117351); assay type: functional
[12] = SNU-C1 cell viability reduction, dose response, CellTiter-Glo luminescence (AID 1117323); assay type: functional, cell-based
[13] = Concentration-dependent survival of SW480 colon cancer line, luminescence detection with CellTiter-Glo, half-maximal inhibitory concentration (AID 1117338); assay type: functional
[14] = CellTiter-Glo luminescent dose response of DLD-1 viability loss (AID 1117352); assay type: functional
[15] = HCT116 cell viability decrease, GSK3B pretreatment – CellTiter-Glo, IC50, dose response (AID 1117339); assay type: functional; details: HCT-116
[16] = HEp-2 cell cytotoxicity, dose response, cytotoxicity control for RSV inhibitor project, HTS (AID 2410); assay type: functional; details: human respiratory syncytial virus
[17] = target: T3, Heat shock factor protein 1 (Mus musculus, UniProt P38532); assay: HSF1 potentiators in luciferase reporter cells, confirmation, cell-based, NIH3T3, luminescence, dose retest (AID 435004); assay type: functional;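 also: stress induced by proteasome inhibitor MG132 added 30 min after compound; luciferase reporter driven by HSF1 response element in NIH3T3 cells; actives raise luminescence as potentiators of the MG132 stress response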
T3 sequence (P38532 whole entry): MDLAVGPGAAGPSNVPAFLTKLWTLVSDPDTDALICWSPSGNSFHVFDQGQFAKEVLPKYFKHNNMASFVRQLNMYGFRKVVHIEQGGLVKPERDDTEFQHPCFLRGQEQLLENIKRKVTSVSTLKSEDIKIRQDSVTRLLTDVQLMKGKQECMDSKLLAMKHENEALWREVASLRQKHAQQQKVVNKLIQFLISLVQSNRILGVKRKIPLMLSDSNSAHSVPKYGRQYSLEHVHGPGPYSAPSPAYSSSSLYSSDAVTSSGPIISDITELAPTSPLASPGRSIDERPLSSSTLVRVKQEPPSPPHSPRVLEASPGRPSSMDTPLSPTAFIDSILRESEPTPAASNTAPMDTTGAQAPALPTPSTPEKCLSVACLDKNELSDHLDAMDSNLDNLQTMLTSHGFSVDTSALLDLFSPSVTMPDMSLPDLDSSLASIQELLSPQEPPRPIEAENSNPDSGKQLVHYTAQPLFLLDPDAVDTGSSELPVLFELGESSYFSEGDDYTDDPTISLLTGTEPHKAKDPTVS

Aminopeptidase N = target: T4, Aminopeptidase N (Plasmodium falciparum FcB1/Columbia, UniProt O96935); assay: P. falciparum M1AAP inhibitors, biochemical, fluorogenic H-Leu-NHMec substrate, 1536-well (AID 1445); design: species or system Plasmodium falciparum 3D7, 3D7
T4 sequence (O96935 whole entry): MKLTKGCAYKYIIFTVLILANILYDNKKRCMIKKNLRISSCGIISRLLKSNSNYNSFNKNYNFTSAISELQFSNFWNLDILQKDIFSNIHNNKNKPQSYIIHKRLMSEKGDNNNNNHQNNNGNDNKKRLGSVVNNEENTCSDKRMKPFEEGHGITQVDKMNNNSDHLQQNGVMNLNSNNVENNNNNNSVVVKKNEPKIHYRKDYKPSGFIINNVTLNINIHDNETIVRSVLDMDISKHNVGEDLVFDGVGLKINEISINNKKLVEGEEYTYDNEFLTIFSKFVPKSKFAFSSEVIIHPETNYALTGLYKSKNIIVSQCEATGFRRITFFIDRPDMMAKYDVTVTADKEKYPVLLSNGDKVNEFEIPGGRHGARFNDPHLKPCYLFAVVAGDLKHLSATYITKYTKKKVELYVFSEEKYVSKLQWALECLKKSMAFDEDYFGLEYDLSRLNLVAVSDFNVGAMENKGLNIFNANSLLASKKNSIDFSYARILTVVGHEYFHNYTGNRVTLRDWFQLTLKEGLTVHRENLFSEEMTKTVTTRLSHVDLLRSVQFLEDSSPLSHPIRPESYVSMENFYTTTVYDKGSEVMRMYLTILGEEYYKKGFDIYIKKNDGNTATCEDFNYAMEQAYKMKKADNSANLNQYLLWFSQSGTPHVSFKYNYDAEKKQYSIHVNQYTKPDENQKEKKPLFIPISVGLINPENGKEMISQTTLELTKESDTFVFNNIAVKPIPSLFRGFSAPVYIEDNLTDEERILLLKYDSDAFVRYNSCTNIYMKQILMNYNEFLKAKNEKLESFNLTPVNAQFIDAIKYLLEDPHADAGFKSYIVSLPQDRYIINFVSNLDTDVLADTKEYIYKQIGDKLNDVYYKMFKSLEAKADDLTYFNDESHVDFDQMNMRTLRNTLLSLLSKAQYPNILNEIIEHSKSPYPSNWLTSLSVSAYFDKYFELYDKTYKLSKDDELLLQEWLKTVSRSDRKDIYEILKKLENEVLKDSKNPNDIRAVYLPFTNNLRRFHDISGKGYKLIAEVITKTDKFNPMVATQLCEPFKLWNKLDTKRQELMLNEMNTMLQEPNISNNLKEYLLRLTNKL

[18] = Shn3 3'UTR reporter inhibitors, dose response, cell-based, Clone20 osteoblasts, firefly luciferase, cherry-picked (AID 624132); assay type: functional;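 also: firefly luciferase luminescence from reporter carrying the Shn3 3'UTR in osteoblasts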
[19] = Luminescence Cell-Based Dose Retest to Confirm Inhibitors of Cancer Stem Cells. [Related pubchem assays (depositor defined):AID2717, AID2721]; assay type: functional; details: Homo sapiens
[20] = A Cell Based Secondary Assay To Explore Cytotoxicity of Compounds that Sensitize Mycobacterium Tuberculosis to Beta-Lactam Antibiotics.; assay type: functional
[21] = target: Voltage-gated inwardly rectifying potassium channel KCNH2 (Homo sapiens, UniProt Q12809); details: Potency;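 also: confirmatory quantitative high-throughput screen measuring inhibition of hERG channel activity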
[22] = HepG2 cell cytotoxicity, dose response, cytotoxicity control for Shn3 inhibitor project, CellTiter-Glo, cherry-picked (AID 624134); assay type: functional, cell-based
[23] = inhibitors of control Renilla luciferase reporter, dose response, counter-screen for Shn3 3'UTR targeting project, Clone20-Shn3RL cells, dual-Glo, cherry-pick, set 2 (AID 720724); assay type: functional, cell-based; details: Dual-Go Shn3RL
Cytochrome P450 3A4 = Cytochrome P450 3A4 (Homo sapiens, UniProt P08684);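 also: CYP3A4 tested as one member of a cytochrome P450 panel screen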
[24] = reduction of Shn3 3'UTR firefly luciferase signal, dose response, Schnurri-3 inhibitor project, cell-based, Clone20 osteoblasts, cherry-pick, set 2 (AID 720490); assay type: functional;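 also: actives lower the luminescence signal as inhibitors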
Cytochrome P450 1A2 = target: T5, Cytochrome P450 1A2 (Homo sapiens, UniProt P05177);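 also: PubChem cytochrome P450 panel assay, CYP1A2 panel member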
T5 sequence (P05177 whole entry): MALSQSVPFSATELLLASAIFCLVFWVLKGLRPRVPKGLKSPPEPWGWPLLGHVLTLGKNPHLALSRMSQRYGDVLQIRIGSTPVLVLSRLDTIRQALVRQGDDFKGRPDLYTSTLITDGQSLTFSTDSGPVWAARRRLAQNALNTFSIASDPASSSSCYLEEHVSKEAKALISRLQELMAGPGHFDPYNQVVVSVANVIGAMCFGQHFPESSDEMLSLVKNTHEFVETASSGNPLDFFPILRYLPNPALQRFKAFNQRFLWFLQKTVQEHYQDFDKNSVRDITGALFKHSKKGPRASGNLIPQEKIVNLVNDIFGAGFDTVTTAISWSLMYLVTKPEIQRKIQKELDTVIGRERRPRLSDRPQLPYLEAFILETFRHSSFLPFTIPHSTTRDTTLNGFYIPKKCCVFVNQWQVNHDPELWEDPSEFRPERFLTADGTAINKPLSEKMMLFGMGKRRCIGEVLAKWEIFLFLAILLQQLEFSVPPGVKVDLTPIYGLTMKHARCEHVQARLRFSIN

[25] = control 3'UTR Renilla luciferase suppression, dose response, counter-screen for Shn3 inhibitor project, cell-based, Clone20-Shn3RL, cherry-picked (AID 624133); assay type: functional
Paired box protein Pax-8 = Paired box protein Pax-8 (Homo sapiens, UniProt Q06710); assay: inhibitors of PAX8-driven TPO luciferase reporter, dose response, RMG-I cells, cherry-pick (AID 687027); assay type: functional, cell-based;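 also: luciferase reporter driven by Pax8 target thyroperoxidase promoter measured by SteadyGlo luminescence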
[26] = inhibitors of PGC1a acetylation in cells, dose response, cell-based, cherry-picked samples (AID 720514); assay type: functional;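 also: potency may reflect raised or lowered acetylation signal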
[27] = non-specific cell cytotoxicity, dose response, cytotoxicity control for PAX8 inhibitor project, plate reader, dry powder samples (AID 743021); assay type: functional, cell-based

Sequence of Caspase-6 (P55212 24-179 limits assumed): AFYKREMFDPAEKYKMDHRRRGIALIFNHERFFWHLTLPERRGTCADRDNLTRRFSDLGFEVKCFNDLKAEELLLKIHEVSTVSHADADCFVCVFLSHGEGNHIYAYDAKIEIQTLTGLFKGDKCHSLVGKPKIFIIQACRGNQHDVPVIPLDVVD
Sequence of Caspase-6 (P55212 194-293 limits assumed): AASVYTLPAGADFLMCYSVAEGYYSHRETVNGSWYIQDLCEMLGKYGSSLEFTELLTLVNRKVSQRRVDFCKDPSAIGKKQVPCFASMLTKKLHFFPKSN
Sequence of Disintegrin and metalloproteinase domain-containing protein 17 (P78536 whole entry, the tested form may be a part): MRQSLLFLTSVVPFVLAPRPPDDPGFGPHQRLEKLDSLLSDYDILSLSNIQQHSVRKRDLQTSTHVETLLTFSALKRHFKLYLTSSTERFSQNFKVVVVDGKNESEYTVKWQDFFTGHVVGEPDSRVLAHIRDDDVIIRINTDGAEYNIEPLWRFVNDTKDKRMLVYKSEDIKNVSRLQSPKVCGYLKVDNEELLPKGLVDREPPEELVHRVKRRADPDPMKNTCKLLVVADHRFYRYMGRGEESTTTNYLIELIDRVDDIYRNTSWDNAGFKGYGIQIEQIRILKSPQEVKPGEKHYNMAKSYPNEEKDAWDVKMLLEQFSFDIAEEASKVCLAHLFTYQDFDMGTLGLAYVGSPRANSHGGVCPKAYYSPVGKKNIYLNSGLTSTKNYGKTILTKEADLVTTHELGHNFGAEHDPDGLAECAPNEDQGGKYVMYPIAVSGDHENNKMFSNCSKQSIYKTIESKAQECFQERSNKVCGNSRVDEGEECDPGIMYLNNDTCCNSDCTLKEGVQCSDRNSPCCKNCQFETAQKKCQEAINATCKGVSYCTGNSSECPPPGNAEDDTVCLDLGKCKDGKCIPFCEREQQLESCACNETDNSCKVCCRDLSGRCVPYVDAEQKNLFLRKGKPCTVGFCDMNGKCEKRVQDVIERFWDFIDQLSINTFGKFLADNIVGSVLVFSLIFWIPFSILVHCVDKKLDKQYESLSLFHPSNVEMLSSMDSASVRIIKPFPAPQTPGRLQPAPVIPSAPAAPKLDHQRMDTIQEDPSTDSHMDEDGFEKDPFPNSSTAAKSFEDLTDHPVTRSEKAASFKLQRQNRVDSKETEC
Sequence of Paired box protein Pax-8 (Q06710 whole entry): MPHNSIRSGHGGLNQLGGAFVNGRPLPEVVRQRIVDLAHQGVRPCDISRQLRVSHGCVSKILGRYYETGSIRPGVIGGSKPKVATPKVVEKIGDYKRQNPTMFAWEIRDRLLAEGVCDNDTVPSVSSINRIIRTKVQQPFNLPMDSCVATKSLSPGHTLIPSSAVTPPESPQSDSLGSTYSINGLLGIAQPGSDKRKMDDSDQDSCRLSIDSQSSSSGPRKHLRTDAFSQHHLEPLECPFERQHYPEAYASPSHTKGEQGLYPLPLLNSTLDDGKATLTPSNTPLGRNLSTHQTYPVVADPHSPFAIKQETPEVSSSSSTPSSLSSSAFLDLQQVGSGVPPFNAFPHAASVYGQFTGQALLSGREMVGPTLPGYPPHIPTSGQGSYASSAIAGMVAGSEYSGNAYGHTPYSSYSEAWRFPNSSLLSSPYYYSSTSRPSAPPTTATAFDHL
Sequence of Cytochrome P450 3A4 (P08684 whole entry): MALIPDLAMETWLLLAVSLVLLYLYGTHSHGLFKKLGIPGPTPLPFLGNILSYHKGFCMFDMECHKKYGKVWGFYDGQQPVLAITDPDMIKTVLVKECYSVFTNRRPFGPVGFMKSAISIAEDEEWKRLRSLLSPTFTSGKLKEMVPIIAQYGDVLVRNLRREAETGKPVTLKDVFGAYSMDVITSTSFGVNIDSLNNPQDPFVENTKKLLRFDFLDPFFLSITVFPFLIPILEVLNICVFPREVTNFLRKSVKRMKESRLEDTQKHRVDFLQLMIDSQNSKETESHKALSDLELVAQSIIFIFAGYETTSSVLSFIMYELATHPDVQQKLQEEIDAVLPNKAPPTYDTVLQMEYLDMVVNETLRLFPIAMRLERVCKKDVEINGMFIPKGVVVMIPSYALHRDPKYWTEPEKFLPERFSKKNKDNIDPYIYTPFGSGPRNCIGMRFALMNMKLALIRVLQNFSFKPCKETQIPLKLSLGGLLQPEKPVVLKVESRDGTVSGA
Sequence of Voltage-gated inwardly rectifying potassium channel KCNH2 (Q12809 whole entry): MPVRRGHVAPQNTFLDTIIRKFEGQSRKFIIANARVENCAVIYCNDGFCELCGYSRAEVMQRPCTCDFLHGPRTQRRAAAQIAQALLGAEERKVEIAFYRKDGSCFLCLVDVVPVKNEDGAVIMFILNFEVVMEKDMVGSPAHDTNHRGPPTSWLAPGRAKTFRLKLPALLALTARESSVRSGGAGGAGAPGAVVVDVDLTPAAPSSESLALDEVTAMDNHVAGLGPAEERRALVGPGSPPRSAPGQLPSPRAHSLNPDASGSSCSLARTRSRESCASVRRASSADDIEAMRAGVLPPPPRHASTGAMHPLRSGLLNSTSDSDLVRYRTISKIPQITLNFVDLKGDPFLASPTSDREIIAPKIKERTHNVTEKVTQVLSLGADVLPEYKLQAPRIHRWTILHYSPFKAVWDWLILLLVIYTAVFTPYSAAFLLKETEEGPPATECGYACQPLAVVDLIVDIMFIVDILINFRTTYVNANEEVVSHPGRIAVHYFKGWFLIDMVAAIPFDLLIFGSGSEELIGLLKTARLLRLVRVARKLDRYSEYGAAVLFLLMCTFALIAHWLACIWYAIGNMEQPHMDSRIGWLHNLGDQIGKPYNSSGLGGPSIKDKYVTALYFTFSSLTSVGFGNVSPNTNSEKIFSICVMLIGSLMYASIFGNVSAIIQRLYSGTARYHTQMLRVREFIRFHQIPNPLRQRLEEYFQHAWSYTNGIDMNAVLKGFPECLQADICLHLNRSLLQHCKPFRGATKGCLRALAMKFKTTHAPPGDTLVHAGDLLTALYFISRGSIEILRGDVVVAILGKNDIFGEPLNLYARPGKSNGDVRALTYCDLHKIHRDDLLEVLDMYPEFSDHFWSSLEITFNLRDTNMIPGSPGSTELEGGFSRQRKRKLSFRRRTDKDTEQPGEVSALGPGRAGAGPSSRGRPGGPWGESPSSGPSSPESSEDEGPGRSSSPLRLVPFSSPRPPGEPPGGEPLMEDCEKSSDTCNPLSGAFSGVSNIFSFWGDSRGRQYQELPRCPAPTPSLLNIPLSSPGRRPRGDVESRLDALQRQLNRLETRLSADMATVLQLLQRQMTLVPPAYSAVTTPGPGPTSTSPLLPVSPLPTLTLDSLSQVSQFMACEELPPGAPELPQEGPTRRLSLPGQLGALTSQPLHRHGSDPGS

C[C@@H]1CN([C@H](C)CO)C(=O)c2cccc(NC(=O)Nc3ccccc3)c2O[C@@H]1CN(C)Cc1ccc(Cl)c(Cl)c1
active: AC50 (HEK293) 9.06 µM | AC50 [1] 9.06 µM | AC50 (HeLa) 45.7 µM

CCN(CC)c1ccc2cc(C#N)c(=O)oc2c1
active: EC50 [2] 76.3 µM | AC50 (cells) 0.575 µM
inconclusive: EC50 [3] 63 µM

O=C(Cc1cccs1)N1Cc2ccccc2-n2nncc2C1
active: AC50 (Caspase-6) 5.36 µM

OC(c1ccccc1)(c1nc(-c2ccc3c(c2)OCO3)cs1)C(F)(F)F (stereo not given)
active: IC50 [4] > 7.73 µM
inactive: IC50 [5] > 69.5 µM

Cc1cc(O)c2c3c4c(cc(O)c13)C(C)(C)C(=O)c1c(O)cc(O)c(c1-4)C2=O [HELIOMYCIN]
inactive: IC50 [10] > 10 µM | IC50 [11] > 10 µM
active: IC50 [6] 0.082 µM | IC50 [7] 0.0754 µM | IC50 [8] 0.0775 µM | IC50 [9] 3.01 µM | IC50 [12] 0.332 µM | IC50 [13] 0.058 µM | IC50 [14] 0.0709 µM | IC50 [15] 0.0574 µM

Cc1ccc(C(=O)NC(=S)Nc2ccc(N3CCOCC3)cc2)cc1
active: AC50 (HEK293) 20.1 µM | AC50 [1] 20.1 µM

COc1ccccc1NS(=O)(=O)c1cc(NC(=O)c2cc(F)c(F)c(F)c2F)ccc1N1CCOCC1
inactive: IC50 [4] > 69.5 µM | IC50 [5] > 69.5 µM

CCOC(=O)COc1ccc(Br)cc1/C=C/c1nc(O)nc(O)c1[N+](=O)[O-]
active: CC50 [16] 12.7 µM | EC50 [17] 15.6 µM | IC50 (Aminopeptidase N) 25.4 µM | AC50 (Caspase-6) 5.09 µM

Nc1ncnc2c1c(-c1ccc(Oc3ccccc3)cc1)cn2C1CCCC1
inconclusive: AC50 [21] 5.01 µM | AC50 (Cytochrome P450 3A4) | AC50 (Cytochrome P450 1A2) 15.8 µM
inactive: AC50 [22] > 70 µM
active: AC50 [18] 0.658 µM | AC50 [19] 3.03 µM | CC50 [20] 0.802 µM | AC50 [23] 56.8 µM | AC50 [24] 4.83 µM | AC50 [25] 31.7 µM

Oc1nc2ccccc2n1C1CCN(C(CCc2ccccc2)c2nnnn2Cc2ccccc2)CC1 (stereo not given)
active: AC50 [18] 1.23 µM | AC50 [22] 13.5 µM | AC50 [23] 20.3 µM | AC50 (Paired box protein Pax-8) 1.4 µM | AC50 [24] 3.97 µM | AC50 [25] 60.9 µM | AC50 [26] 3.88 µM | AC50 [27] 11.4 µM
